The results in this text go back to patent US10357493B2, “Metalloenzyme inhibitor compounds” (Selenity Therapeutics (Bermuda), Ltd., priority 2017, dated 2019).

Where only a bound is given, the exact number is not on record here.

The target in one assay is HDAC1 (Homo sapiens (Human), UniProt Q13547). The assay is described as follows: HDAC1 enzymatic assay. The format is biochemical. The following applies: read-out: Human HDAC1 IC50. The procedure, abridged: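 HDAC1 activity was measured in duplicate 50 μl reactions containing 0.5 ng HDAC1, 10 uM of HDAC substrate, and test compound in buffer (50 mM Tris-HCl, pH 7.4, 137 mM NaCl, 2.7 mM KCl, 0.05% Tween 20, 5 μg BSA) with 1% DMSO, incubated 17 hours at room temperature. HDAC Developer was then added for 20 minutes and fluorescence read at 360/460 nm.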
Chain of HDAC1 (Q13547 whole entry): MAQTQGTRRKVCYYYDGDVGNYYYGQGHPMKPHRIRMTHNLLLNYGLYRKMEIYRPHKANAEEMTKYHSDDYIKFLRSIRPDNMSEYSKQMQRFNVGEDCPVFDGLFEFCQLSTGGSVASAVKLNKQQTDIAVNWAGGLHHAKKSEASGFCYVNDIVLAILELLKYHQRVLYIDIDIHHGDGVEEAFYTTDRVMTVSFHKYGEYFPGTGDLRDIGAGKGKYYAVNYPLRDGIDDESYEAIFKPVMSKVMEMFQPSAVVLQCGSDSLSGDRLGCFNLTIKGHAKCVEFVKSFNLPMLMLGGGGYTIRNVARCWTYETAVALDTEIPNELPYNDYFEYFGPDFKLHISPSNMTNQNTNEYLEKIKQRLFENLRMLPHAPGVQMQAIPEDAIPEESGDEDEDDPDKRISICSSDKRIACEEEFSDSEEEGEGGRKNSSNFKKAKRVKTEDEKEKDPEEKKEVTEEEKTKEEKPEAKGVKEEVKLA

The target in another assay is HDAC6 (Homo sapiens (Human), UniProt Q9UBN7). The assay can be described thus: HDAC6 enzymatic assay. The format is biochemical. The following applies: read-out: Human HDAC6 IC50. The procedure, abridged:
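Human HDAC6 activity was measured in duplicate 50 μl reactions holding 2 ng HDAC6, 10 uM of HDAC substrate and test compound in HDAC assay buffer (50 mM Tris-HCl, pH 7.4, 137 mM NaCl, 2.7 mM KCl, 0.05% Tween 20, 5 μg BSA) with 1% DMSO, for 17 hours at room temperature. HDAC Developer was added for 20 minutes before reading fluorescence at 360/460 nm.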

Chain of HDAC6 (Q9UBN7 whole entry): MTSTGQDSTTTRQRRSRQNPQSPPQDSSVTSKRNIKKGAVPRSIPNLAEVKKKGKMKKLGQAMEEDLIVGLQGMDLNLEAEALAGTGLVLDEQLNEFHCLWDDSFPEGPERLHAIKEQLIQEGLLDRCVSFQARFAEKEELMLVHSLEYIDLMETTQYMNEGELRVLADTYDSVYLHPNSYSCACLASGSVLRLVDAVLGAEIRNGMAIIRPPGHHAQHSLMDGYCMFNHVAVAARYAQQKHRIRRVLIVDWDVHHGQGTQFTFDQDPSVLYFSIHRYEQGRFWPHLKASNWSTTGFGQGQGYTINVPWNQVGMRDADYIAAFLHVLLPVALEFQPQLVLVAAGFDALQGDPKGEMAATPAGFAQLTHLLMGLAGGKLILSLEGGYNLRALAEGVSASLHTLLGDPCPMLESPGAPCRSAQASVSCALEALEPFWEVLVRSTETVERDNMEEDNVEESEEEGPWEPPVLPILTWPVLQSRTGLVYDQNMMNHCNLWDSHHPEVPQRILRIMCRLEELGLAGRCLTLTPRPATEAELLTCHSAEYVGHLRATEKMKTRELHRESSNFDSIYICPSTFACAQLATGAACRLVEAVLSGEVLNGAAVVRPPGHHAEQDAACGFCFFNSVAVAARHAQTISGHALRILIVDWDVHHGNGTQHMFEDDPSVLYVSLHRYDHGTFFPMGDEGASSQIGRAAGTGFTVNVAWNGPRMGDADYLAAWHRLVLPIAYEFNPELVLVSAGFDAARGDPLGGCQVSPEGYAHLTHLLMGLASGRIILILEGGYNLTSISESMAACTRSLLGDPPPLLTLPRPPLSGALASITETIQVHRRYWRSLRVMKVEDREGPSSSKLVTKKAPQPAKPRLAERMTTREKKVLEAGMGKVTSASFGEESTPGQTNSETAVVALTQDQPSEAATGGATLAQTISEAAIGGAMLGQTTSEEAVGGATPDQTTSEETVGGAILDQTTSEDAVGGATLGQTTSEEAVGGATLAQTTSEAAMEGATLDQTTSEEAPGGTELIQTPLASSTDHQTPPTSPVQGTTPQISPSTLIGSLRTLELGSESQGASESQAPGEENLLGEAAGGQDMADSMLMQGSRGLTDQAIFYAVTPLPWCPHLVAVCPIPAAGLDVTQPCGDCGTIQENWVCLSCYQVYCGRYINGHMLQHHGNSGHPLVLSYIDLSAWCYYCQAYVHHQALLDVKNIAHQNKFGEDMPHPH

Turning to `O=S(=O)(C1CC1)N(CC(Nc1ncc(-c2nnc(C(F)F)o2)cn1)c1ccc(F)cc1F)CC(F)(F)F` (stereo not drawn) [144(+), N-(2-((5-(5-(difluoromethyl)-1,3,4-oxadiazol-2-yl)pyrimidin-2-yl)amino)-2-(2,4-difluorophenyl)ethyl)-N-(2,2,2-trifluoroethyl)cyclopropanesulfonamide], the IC50 was above 30 µM on HDAC1 and 160 nM at HDAC6.
With `CN(CC(Nc1ncc(-c2nnc(C(F)F)o2)cn1)c1ccc(OC(F)F)cc1F)S(C)(=O)=O` (stereo not drawn) [145(+), N-(2-(4-(difluoromethoxy)-2-fluorophenyl)-2-((5-(5-(difluoromethyl)-1,3,4-oxadiazol-2-yl)pyrimidin-2-yl)amino)ethyl)-N-methylmethanesulfonamide], the figures for the IC50 at HDAC1 and on HDAC6 were above 30 µM and 41 nM, respectively.
For `CS(=O)(=O)N(CC(Nc1ncc(-c2nnc(C(F)F)o2)cn1)c1ccc(OC(F)F)cc1F)CC(F)(F)F` (stereo not drawn) [146(+), N-(2-(4-(difluoromethoxy)-2-fluorophenyl)-2-((5-(5-(difluoromethyl)-1,3,4-oxadiazol-2-yl)pyrimidin-2-yl)amino)ethyl)-N-(2,2,2-trifluoroethyl)methanesulfonamide] the same measures were above 30 µM and 140 nM.
For the compound `CCS(=O)(=O)NCC(Nc1ncc(-c2nnc(C(F)F)o2)cn1)c1ccc(OC(F)F)cc1F` (stereo not drawn) [147(+), N-(2-(4-(difluoromethoxy)-2-fluorophenyl)-2-((5-(5-(difluoromethyl)-1,3,4-oxadiazol-2-yl)pyrimidin-2-yl)amino)ethyl)ethanesulfonamide], the IC50 on HDAC1 was above 30 µM; on HDAC6 it was 18 nM.
`CCS(=O)(=O)N(C)CC(Nc1ncc(-c2nnc(C(F)F)o2)cn1)c1ccc(OC(F)F)cc1F` (stereo not drawn) [148(+), N-(2-(4-(difluoromethoxy)-2-fluorophenyl)-2-((5-(5-(difluoromethyl)-1,3,4-oxadiazol-2-yl)pyrimidin-2-yl)amino)ethyl)-N-methylethanesulfonamide]: the values for the 50% inhibitory concentration (IC50) on HDAC1 and on HDAC6 were above 30 µM and 19 nM, respectively.
For `CCS(=O)(=O)N(CC(Nc1ncc(-c2nnc(C(F)F)o2)cn1)c1ccc(OC(F)F)cc1F)CC(F)(F)F` (stereo not drawn) [149(+), N-(2-(4-(difluoromethoxy)-2-fluorophenyl)-2-((5-(5-(difluoromethyl)-1,3,4-oxadiazol-2-yl)pyrimidin-2-yl)amino)ethyl)-N-(2,2,2-trifluoroethyl)ethanesulfonamide] the same measures were above 30 µM and 200 nM.
With `CN(CC(Nc1ncc(-c2nnc(C(F)F)o2)cn1)c1ccc(OC(F)F)cc1F)S(=O)(=O)C1CC1` (stereo not drawn) [151(+), N-(2-(4-(difluoromethoxy)-2-fluorophenyl)-2-((5-(5-(difluoromethyl)-1,3,4-oxadiazol-2-yl)pyrimidin-2-yl)amino)ethyl)-N-methylcyclopropanesulfonamide], the IC50 was above 30 µM on HDAC1 and 85 nM on HDAC6.
As to `O=S(=O)(C1CC1)N(CC(Nc1ncc(-c2nnc(C(F)F)o2)cn1)c1ccc(OC(F)F)cc1F)CC(F)(F)F` (stereo not drawn) [152(+), N-(2-(4-(difluoromethoxy)-2-fluorophenyl)-2-((5-(5-(difluoromethyl)-1,3,4-oxadiazol-2-yl)pyrimidin-2-yl)amino)ethyl)-N-(2,2,2-trifluoroethyl)cyclopropanesulfonamide], the IC50 on HDAC1 is above 30 µM; at HDAC6, 280 nM.
For `CN(CC(Nc1ncc(-c2nnc(C(F)F)o2)cn1)c1ccc(OC(F)(F)F)cc1)S(C)(=O)=O` (stereo not drawn) [153(+), N-(2-((5-(5-(difluoromethyl)-1,3,4-oxadiazol-2-yl)pyrimidin-2-yl)amino)-2-(4-(trifluoromethoxy)phenyl)ethyl)-N-methylmethanesulfonamide] the same measures were above 30 µM and 20 nM.
As for `CS(=O)(=O)N(CC(Nc1ncc(-c2nnc(C(F)F)o2)cn1)c1ccc(OC(F)(F)F)cc1)CC(F)(F)F` (stereo not drawn) [154(+), N-(2-((5-(5-(difluoromethyl)-1,3,4-oxadiazol-2-yl)pyrimidin-2-yl)amino)-2-(4-(trifluoromethoxy)phenyl)ethyl)-N-(2,2,2-trifluoroethyl)methanesulfonamide], the IC50 was above 30 µM at HDAC1 and 260 nM at HDAC6.
For `CCS(=O)(=O)NCC(Nc1ncc(-c2nnc(C(F)F)o2)cn1)c1ccc(OC(F)(F)F)cc1` (stereo not drawn) [155(+), N-(2-((5-(5-(difluoromethyl)-1,3,4-oxadiazol-2-yl)pyrimidin-2-yl)amino)-2-(4-(trifluoromethoxy)phenyl)ethyl)ethanesulfonamide] the same measures were above 30 µM and 50 nM.
For `CCS(=O)(=O)N(C)CC(Nc1ncc(-c2nnc(C(F)F)o2)cn1)c1ccc(OC(F)(F)F)cc1` (stereo not drawn) [156(+), N-(2-((5-(5-(difluoromethyl)-1,3,4-oxadiazol-2-yl)pyrimidin-2-yl)amino)-2-(4-(trifluoromethoxy)phenyl)ethyl)-N-methylethanesulfonamide] the same measures were above 30 µM and 76 nM.
Regarding `CCS(=O)(=O)N(CC(Nc1ncc(-c2nnc(C(F)F)o2)cn1)c1ccc(OC(F)(F)F)cc1)CC(F)(F)F` (stereo not drawn) [157(+), N-(2-((5-(5-(difluoromethyl)-1,3,4-oxadiazol-2-yl)pyrimidin-2-yl)amino)-2-(4-(trifluoromethoxy)phenyl)ethyl)-N-(2,2,2-trifluoroethyl)ethanesulfonamide], the IC50 was above 30 µM at HDAC1 and 440 nM at HDAC6.
As for `O=S(=O)(NCC(Nc1ncc(-c2nnc(C(F)F)o2)cn1)c1ccc(OC(F)(F)F)cc1)C1CC1` (stereo not drawn) [158(+), N-(2-((5-(5-(difluoromethyl)-1,3,4-oxadiazol-2-yl)pyrimidin-2-yl)amino)-2-(4-(trifluoromethoxy)phenyl)ethyl)cyclopropanesulfonamide], the IC50 at HDAC1 was above 30 µM; on HDAC6 it was 51 nM.
For `CN(CC(Nc1ncc(-c2nnc(C(F)F)o2)cn1)c1ccc(OC(F)(F)F)cc1)S(=O)(=O)C1CC1` (stereo not drawn) [159(+), N-(2-((5-(5-(difluoromethyl)-1,3,4-oxadiazol-2-yl)pyrimidin-2-yl)amino)-2-(4-(trifluoromethoxy)phenyl)ethyl)-N-methylcyclopropanesulfonamide], the concentration for half-maximal inhibition (IC50) was above 30 µM at HDAC1 and 90 nM on HDAC6.
For `O=S(=O)(C1CC1)N(CC(Nc1ncc(-c2nnc(C(F)F)o2)cn1)c1ccc(OC(F)(F)F)cc1)CC(F)(F)F` (stereo not drawn) [160(+), N-(2-((5-(5-(difluoromethyl)-1,3,4-oxadiazol-2-yl)pyrimidin-2-yl)amino)-2-(4-(trifluoromethoxy)phenyl)ethyl)-N-(2,2,2-trifluoroethyl)cyclopropanesulfonamide] the same measures were above 30 µM and 580 nM.
On the same counts, the results for `FC(F)(F)c1nnc(-c2cnc(NC3(c4ccccc4)CC3)nc2)o1` [Example 1, N-(1-phenylcyclopropyl)-5-(5-(trifluoromethyl)-1,3,4-oxadiazol-2-yl) pyrimidin-2-amine] are above 30 µM and 210 nM.
With `CC(Nc1ncc(-c2nnc(C(F)(F)F)o2)cn1)c1ccccc1` (centres unmarked) [Example 2, N-(1-phenylethyl)-5-(5-(trifluoromethyl)-1,3,4-oxadiazol-2-yl)pyrimidin-2-amine], the IC50 is above 30 µM on HDAC1 and 390 nM on HDAC6.
For `Cc1cccc(CNc2ncc(-c3nnc(C(F)(F)F)o3)cn2)n1` [Example 3, N-((6-methylpyridin-2-yl)methyl)-5-(5-(trifluoromethyl)-1,3,4-oxadiazol-2-yl) pyrimidin-2-amine] the same measures were above 30 µM and 230 nM.
`CC(Nc1ncc(-c2nnc(C(F)F)o2)cn1)c1ccccc1` (centres unmarked) [Example 6, 5-(5-(difluoromethyl)-1,3,4-oxadiazol-2-yl)-N-(1-phenylethyl)pyrimidin-2-amine]: the IC50 on HDAC1 was above 30 µM; at HDAC6, 57 nM.
For `FC(F)c1nnc(-c2cnc(NC(c3ccccc3)c3ccccc3)nc2)o1` [Example 7, N-benzhydryl-5-(5-(difluoromethyl)-1,3,4-oxadiazol-2-yl)pyrimidin-2-amine] the same measures were above 30 µM and 1700 nM.
On the same counts, the results for `CN(c1ncc(-c2nnc(C(F)F)o2)cn1)C1(c2ccc(F)cc2)CC1` [Example 8, 5-(5-(difluoromethyl)-1,3,4-oxadiazol-2-yl)-N-(1-(4-fluorophenyl)cyclopropyl)-N-methylpyrimidin-2-amine] are above 30 µM and 9000 nM.
`Fc1ccc(C2(Nc3ncc(-c4nnc(C(F)F)o4)cn3)CC2)c(F)c1` [Example 10, 5-(5-(difluoromethyl)-1,3,4-oxadiazol-2-yl)-N-(1-(2,4-difluorophenyl)cyclopropyl)pyrimidin-2-amine]: the half-maximal inhibitory concentration (IC50) on HDAC1 is above 100 µM; on HDAC6 it was 9 nM.
For `FC(F)c1nnc(-c2cnc(OC3(c4ccccc4)CC3)nc2)o1` [Example 12, 2-(difluoromethyl)-5-(2-(1-phenylcyclopropoxy)pyrimidin-5-yl)-1,3,4-oxadiazole] the same measures were above 30 µM and 210 nM.
`Fc1ccc(-c2ccccc2C2(Nc3ncc(-c4nnc(C(F)F)o4)cn3)CC2)cc1` [Example 14, 5-(5-(difluoromethyl)-1,3,4-oxadiazol-2-yl)-N-(1-(4′-fluoro-[1,1′-biphenyl]-2-yl)cyclopropyl)pyrimidin-2-amine]: the concentration for half-maximal inhibition (IC50) at HDAC1 was above 30 µM; on HDAC6, above 30000 nM.

The IC50 is the midpoint of a concentration-inhibition curve.
